# Laboratory results as given in ChEMBL document CHEMBL1201862, “PubChem BioAssay data set” (2004).
# The source made the active and inactive calls. Rule as the data show it, for most assays here: actives have a measured EC50 and inactives only a lower limit.
# What was measured:
# [1] = target: T1, Heat shock factor protein 1 (Mus musculus, UniProt P38532); assay: enhancement of HSF1-driven luciferase signal – cell-based, NIH3T3, luminescence, dose retest, confirmation (AID 435004); format: functional;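 also: stress induced by proteasome inhibitor MG132 added 30 min after compound; luciferase reporter driven by HSF1 response element in NIH3T3 cells; actives raise luminescence as potentiators of the MG132 stress response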
# T1 sequence (P38532 whole entry): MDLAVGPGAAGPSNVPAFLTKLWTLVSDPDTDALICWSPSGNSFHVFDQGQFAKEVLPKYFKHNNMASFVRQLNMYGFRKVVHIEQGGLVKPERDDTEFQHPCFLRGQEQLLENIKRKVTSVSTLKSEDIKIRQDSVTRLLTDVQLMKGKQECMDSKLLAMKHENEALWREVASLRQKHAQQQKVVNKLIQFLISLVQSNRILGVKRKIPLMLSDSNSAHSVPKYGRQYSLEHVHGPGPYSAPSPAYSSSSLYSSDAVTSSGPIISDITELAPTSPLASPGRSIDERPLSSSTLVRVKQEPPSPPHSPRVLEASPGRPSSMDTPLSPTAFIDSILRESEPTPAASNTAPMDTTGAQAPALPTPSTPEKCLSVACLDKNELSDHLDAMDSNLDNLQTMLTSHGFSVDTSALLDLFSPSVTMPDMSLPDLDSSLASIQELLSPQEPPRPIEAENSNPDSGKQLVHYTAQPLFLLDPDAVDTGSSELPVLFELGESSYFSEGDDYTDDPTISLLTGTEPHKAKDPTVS
# [2] = luciferase reporter signal suppression in cells – H4 neuroglioma cells, luminescence, dose response (AID 1990); format: functional, cell-based
# [3] = Luminescence Cell-Based Dose Response HTS to Identify Inhibitors of 5'UTR Stem-Loop Driven Prion Protein mRNA Translation in H4 Neuroglioblastoma Cells. [Related pubchem assays: 1827 (Project Summary), 1813 (Primary HTS)]; format: functional
# [4] = alpha-synuclein stem-loop luciferase translation blockers – H4 neuroglioma cells, luminescence, confirmation (AID 1988); format: functional, cell-based
# [5] = system: Streptococcus sp. 'group A'; assay: Streptococcus pyogenes SK(-)GAS viability under kanamycin – luminescence, BacTiterGlo, confirmation, counter-screen for streptokinase expression inhibitor project, dose response (AID 1900); format: functional, organism-based
# Streptokinase A = target: T2, Streptokinase A (Streptococcus pyogenes serotype M1, UniProt P10520); assay: viability-normalized secreted streptokinase activity reduction – plasminogen activation absorbance, OD405, dose response (AID 1914); format: functional, Streptococcus pyogenes M1 GAS;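 also: secreted streptokinase activity via plasminogen activation per viability signal from cell pellet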
# T2 sequence (P10520 whole entry): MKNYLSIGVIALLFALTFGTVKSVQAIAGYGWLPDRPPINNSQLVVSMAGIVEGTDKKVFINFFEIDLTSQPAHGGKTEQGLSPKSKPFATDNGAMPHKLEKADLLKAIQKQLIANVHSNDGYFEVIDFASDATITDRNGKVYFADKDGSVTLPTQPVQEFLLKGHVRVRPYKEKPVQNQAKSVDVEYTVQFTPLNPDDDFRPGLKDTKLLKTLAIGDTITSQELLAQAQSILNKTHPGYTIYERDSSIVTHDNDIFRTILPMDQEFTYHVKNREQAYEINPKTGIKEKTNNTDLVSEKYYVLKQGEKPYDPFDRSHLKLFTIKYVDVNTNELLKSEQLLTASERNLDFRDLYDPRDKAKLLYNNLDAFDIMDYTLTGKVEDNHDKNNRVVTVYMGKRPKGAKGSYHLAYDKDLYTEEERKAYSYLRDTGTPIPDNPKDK
# Streptococcus = assay: GAS UMAA2166 growth inhibition – luminescence, BacTiterGlo, counter-screen for streptokinase expression inhibitor project, dose response (AID 1915); format: functional, organism-based;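 also: potency for reduction of bacterial viability or growth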
# [6] = target: T3, RNA-binding protein pos-1 (Caenorhabditis elegans, UniProt G5EF15); assay: disruptors of C. elegans POS-1 RNA interaction – biochemical, fluorescence polarization, dose response (AID 1964);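 also: purified POS-1 fused to maltose binding protein made in E. coli; potency of compounds blocking POS-1 binding to fluorescent RNA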
# T3 sequence (G5EF15 whole entry): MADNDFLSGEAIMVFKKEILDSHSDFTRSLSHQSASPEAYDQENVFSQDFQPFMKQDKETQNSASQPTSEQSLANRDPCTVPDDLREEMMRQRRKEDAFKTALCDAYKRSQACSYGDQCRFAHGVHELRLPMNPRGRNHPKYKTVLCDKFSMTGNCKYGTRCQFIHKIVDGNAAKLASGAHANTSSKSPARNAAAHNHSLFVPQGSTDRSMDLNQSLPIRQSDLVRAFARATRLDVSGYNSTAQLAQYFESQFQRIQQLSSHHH
# [7] = Luminescence Cell-Based Dose Retest to Confirm Inhibitors of Cancer Stem Cells. [Related pubchem assays (depositor defined):AID2717, AID2721]; format: functional, Homo sapiens
# INS1 = assay: INS-1E survival protection against cytokine death – cell-based, luminescence, retest, dose response (AID 449756); format: functional; conditions: Rattus norvegicus;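 also: cell death triggered by IL-1 beta plus TNF-alpha plus IFN-gamma mixture; protective hits raise ATP signal compared with cytokine alone wells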
# Cytochrome P450 1A2 = target: T4, Cytochrome P450 1A2 (Homo sapiens, UniProt P05177);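 also: PubChem cytochrome P450 panel assay, CYP1A2 panel member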
# T4 sequence (P05177 whole entry): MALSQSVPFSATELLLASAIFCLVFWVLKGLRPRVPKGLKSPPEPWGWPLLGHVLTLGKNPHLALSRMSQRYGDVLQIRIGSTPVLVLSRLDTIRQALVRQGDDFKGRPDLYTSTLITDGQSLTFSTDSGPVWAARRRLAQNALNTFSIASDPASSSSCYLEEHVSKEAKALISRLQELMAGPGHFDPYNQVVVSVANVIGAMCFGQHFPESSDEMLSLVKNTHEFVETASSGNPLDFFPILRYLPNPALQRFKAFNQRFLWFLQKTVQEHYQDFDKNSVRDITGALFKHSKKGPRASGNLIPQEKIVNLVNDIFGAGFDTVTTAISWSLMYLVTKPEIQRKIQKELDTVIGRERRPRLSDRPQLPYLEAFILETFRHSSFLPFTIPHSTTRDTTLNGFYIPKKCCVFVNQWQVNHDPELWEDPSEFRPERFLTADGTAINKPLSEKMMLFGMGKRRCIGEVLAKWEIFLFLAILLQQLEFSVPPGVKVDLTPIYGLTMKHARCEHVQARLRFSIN
# [8] = target: T5, Replicative DNA helicase DnaB (Mycobacterium tuberculosis, UniProt P9WMR3); assay: DnaB intein splicing inhibitors, dose response, biochemical, cell-free fluorescence (AID 449749); format: functional
# T5 sequence (P9WMR3 whole entry): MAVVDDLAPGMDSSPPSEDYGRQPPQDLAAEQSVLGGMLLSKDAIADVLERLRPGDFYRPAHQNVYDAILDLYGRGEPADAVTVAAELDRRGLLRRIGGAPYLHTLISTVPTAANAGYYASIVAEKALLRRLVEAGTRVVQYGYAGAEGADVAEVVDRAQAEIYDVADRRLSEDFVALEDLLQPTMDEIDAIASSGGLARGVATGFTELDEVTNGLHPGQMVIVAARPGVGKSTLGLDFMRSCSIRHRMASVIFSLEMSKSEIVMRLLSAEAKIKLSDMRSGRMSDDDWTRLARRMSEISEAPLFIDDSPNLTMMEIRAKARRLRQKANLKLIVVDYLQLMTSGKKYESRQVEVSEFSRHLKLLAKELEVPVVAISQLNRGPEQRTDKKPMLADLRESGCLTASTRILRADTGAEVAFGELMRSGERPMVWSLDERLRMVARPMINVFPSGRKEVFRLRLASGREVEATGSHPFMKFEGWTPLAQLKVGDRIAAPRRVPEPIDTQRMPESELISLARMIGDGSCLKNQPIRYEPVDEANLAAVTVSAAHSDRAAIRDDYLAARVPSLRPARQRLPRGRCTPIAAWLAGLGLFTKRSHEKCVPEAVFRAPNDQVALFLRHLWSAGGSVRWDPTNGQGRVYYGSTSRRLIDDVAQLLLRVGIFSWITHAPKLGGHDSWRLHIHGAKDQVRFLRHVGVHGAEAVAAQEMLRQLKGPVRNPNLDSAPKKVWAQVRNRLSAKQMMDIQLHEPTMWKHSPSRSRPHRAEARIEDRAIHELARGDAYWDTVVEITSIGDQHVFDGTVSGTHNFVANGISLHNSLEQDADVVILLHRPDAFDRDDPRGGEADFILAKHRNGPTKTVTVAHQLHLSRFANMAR
# Protein RecA = target: T6, Protein RecA (Mycobacterium tuberculosis, UniProt P9WHJ3); assay: Fluorescence Cell-Free Homogeneous Dose Retest to Identify Inhibitors of RecA-Intein Splicing Activity. [Related pubchem assays (depositor defined):AID2097, AID2223, AID489010, AID492950]; format: functional
# T6 sequence (P9WHJ3 whole entry): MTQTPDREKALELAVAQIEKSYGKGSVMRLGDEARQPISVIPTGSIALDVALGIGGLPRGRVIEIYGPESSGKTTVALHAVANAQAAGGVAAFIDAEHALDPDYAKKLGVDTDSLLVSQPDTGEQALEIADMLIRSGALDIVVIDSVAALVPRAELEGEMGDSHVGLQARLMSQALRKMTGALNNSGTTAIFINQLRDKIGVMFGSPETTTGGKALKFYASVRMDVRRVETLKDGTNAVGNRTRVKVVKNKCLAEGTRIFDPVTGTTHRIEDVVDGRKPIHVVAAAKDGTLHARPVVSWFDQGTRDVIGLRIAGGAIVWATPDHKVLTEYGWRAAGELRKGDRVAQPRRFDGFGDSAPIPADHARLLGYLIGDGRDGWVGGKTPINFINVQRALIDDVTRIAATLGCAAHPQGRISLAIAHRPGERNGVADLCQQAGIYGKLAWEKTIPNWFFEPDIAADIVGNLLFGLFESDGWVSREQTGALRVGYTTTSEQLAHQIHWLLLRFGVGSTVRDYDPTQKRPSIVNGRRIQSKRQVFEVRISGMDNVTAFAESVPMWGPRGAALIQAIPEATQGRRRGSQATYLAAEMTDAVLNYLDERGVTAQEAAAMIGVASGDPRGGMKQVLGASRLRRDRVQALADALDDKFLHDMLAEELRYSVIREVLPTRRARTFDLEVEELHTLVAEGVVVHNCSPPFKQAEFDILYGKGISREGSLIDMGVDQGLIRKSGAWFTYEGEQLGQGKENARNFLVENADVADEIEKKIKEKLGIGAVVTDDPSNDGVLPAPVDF
SMILES,EC50 [1],further results
CN1CCN(Cc2c(O)ccc3cc(Br)ccc23)CC1,11.2 µM (active),
Cc1ccc(CSc2nc3ccccc3c(=O)n2CCCC(=O)NCc2ccco2)cc1,> 260 µM (inactive),
CCc1cc2c(SCC#N)ncnc2s1,> 260 µM (inactive),
C=CCNC(=O)c1c(N)n(Cc2ccco2)c2nc3ccccc3nc12,43.4 µM (active),
COc1ccc2[nH]c(C)c(CCNc3ccc(C(F)(F)F)cc3[N+](=O)[O-])c2c1,> 260 µM (inactive),
Cc1ccc(N2CC(C(=O)Nc3nnc(SCC(=O)Nc4cc(C)on4)s3)CC2=O)cc1 (stereo not drawn),,EC50 [2]: > 120 µM (not active); EC50 [3]: > 120 µM (not active); EC50 [4]: > 120 µM (not active)
O=c1c2ccccc2[nH]c(=S)n1CCC1=CCCCC1,> 260 µM (inactive),
FC(F)(F)c1ccc(Sc2nnc(-c3cccs3)n2CC2CCCO2)nc1 (stereo not drawn),> 260 µM (inactive),
CCCc1nc2oc3cc(OC)ccc3c(=O)c2c(=O)n1CCc1ccccc1,> 260 µM (inactive),
CCCOC(=O)c1ccc(Oc2c[nH]nc2-c2ccc(O)cc2O)cc1,> 260 µM (inactive),EC50 [5]: > 150 µM (not active); EC50 (Streptokinase A): > 150 µM (not active); EC50 (Streptococcus): > 150 µM (not active)
CCC(NC(=O)/C(=C\c1ccc2c(c1)OCO2)NC(C)=O)C(=O)O (stereo not drawn),> 260 µM (inactive),
COc1ccc(C2N(C(=O)CN3CCCC3)CCCN2S(=O)(=O)c2ccccc2)cc1 (stereo not drawn),> 260 µM (inactive),
COc1ccc(NC(=O)COC(=O)/C=C/C(=O)OCC(=O)Nc2ccc(OC)c(Cl)c2)cc1Cl,6.53 µM (active),
O=C1c2ccccc2C(=O)N1CCC(=O)N1CCCc2ccccc21,> 260 µM (inactive),
CCN(CC)c1ccc(N/C=C2/C(=O)NC(=O)N(Cc3ccccc3)C2=O)cc1,,EC50 [6]: > 300 µM (not active)
Cc1nc(S(=O)(=O)c2ccc(Cl)cc2)c(NCc2ccccc2)o1,> 260 µM (inactive),
Cc1cn(-c2cc(C(=O)Nc3ccc(C)c(NC(=O)C(=O)c4c[nH]c5ccccc45)c3)cc(C(F)(F)F)c2)cn1,,EC50 [5]: 2.38 µM (active); EC50 [3]: 23 µM (active); EC50 (Streptococcus): 3.39 µM (active); AC50 ([7]; Homo sapiens): 2.18 µM (active)
COC(=O)Cn1c2ccc(OC)cc2c2nc(C)sc21,> 260 µM (inactive),
O=C(Nc1ccc(Cl)cc1)Nc1csc([N+](=O)[O-])c1,31.4 µM (active),AC50 (INS1): 7.03 µM (active)
O=C(CN1C(=O)NC2(CCCC2)C1=O)NCCN1C(=O)S/C(=C\c2ccccc2F)C1=O,> 260 µM (inactive),
O=C(Cn1cnc2c(cnn2-c2ccc(Cl)cc2)c1=O)N1CCN(c2ccccc2)CC1,,EC50 [2]: 15.8 µM (active); EC50 [3]: 12 µM (active); EC50 [4]: 18.4 µM (active)
Cc1ccc(S(=O)(=O)c2c(C)cc(C)nc2N2CCCCC2)cc1,> 260 µM (inactive),
CC(Oc1ccc(Cl)cc1)C(=O)/C=C/N(C)C (stereo not drawn),> 260 µM (inactive),AC50 (Cytochrome P450 1A2): 15.8 µM (inconclusive)
CC(C)c1ccc(C2NC(=O)c3ccccc3O2)cc1 (stereo not drawn),21.2 µM (active),
O=C(CN1c2ccccc2S(=O)(=O)c2ccccc21)NCc1ccc(F)cc1,> 260 µM (inactive),
CCOC(=O)N1CCN(C(=O)CS(=O)(=O)c2cn(Cc3ccc(F)cc3)c3ccccc23)CC1,> 260 µM (inactive),
CNc1c(NS(=O)(=O)c2ccc(F)c(Cl)c2)c(=O)oc2ccccc12,> 260 µM (inactive),
CCN(CC)CCOc1ccc(/C(=C(/Cl)c2ccccc2)c2ccccc2)cc1 [CLOMIPHENE],129 µM (active),AC50 [7]: 1.35 µM (active); AC50 [8]: 4.34 µM (active); EC50 (Protein RecA): 12.4 µM (active)
